US20060069132A1, “Azolecarboxamide herbicides” (priority 2004, published 2006)

Columns and labels:
redroot pigweed = test: Test A pre-/postemergence herbicide test; type: in vivo, Amaranthus retroflexus; settings: for Plant response rating, Pigweed: Postemergence; for Pigweed plant response rating: Preemergence
In short: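 Sandy loam soil given preemergence directed spray; plants at 2 to 10 cm, one- to two-leaf stage, sprayed to runoff postemergence, compounds in non-phytotoxic solvent with surfactant. Injury rated visually versus untreated controls after about ten greenhouse days, 0 (no effect) to 100 (complete control); dash means not tested.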

bermudagrass = test: Test C pre-/postemergence herbicide test; type: in vivo, Cynodon dactylon; settings: for Plant response rating, Bermudagrass: visual, 12 to 14 days
In short: (§1)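 Preemergence: seeds planted and treated with compound in non-phytotoxic solvent with surfactant; postemergence: plants at 2 to 18 cm (1- to 4-leaf stage) sprayed likewise. Kept in greenhouse 12 to 14 days, then visually rated against controls, 0 (no effect) to 100 (complete control).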

pigweed = test: Test C pre-/postemergence herbicide test; type: in vivo, Amaranthus retroflexus; settings: for Plant response rating, Pigweed: visual, 12 to 14 days
In short: as §1

barnyardgrass = test: Test B pre-/postemergence herbicide test; type: in vivo, Echinochloa crus-galli
In short: (§2)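 Evaluation is visual, comparing treated with control plants on a scale where 0 means no effect and 100 means full control. Treatments were preemergence, or postemergence on seedlings 2–18 cm tall, and held 13–15 days in the greenhouse.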

morningglory = test: Test C pre-/postemergence herbicide test; type: in vivo, Ipomoea coccinea; parameters: key to Plant response rating, Morningglory: 0 = no effect, 100 = complete control; settings: for Plant response rating, Morningglory: visual, 12 to 14 days
In short: as §1

Surinam grass = test: Test C pre-/postemergence herbicide test; type: in vivo, Urochloa decumbens; settings: for Plant response rating, Surinam Grass: visual, 12 to 14 days
In short: as §1

cocklebur = test: Test B pre-/postemergence herbicide test; type: in vivo, Xanthium strumarium
In short: as §2

[1] = 2000 g ai/ha, 0 to 100 scale, 0 no effect, 100 complete control
[2] = 125 g ai/ha, scale 0 (no effect) to 100 (complete control), preemergence
[3] = 250 g ai/ha, scale 0 to 100 (0 no effect, 100 complete control), preemergence
[4] = Preemergence, 500 g ai/ha, scale 0 to 100, 0 no effect, 100 complete control
[5] = Postemergence, 500 g ai/ha, visual rating after 13 to 15 days, scale 0 (no effect) to 100 (complete control)
[6] = Preemergence, 500 g ai/ha, scale 0 to 100
[7] = postemergence, 125 g ai/ha, visual rating, scale 0 (no effect) to 100 (complete control)
[8] = preemergence, 125 g ai/ha, 0 to 100 scale, 0 is no effect, 100 is complete control

CCN1CCc2c(NC(=O)c3cc(C(C)(C)C)nn3CC)cccc2C1=O [Compound 63]
Plant response rating, Pigweed (redroot pigweed; 500 g ai/ha, 0 to 100 scale, 0 no effect, 100 complete control): 95
Plant response rating, Pigweed (redroot pigweed; [1]): 100
Pigweed plant response rating (redroot pigweed; 500 g ai/ha, visual rating, 0 to 100 scale (0 no effect, 100 complete control)): 100
Pigweed plant response rating (redroot pigweed; [1]): 100
Plant response rating (0 = no effect, 100 = complete control), Bermudagrass (bermudagrass; 62 g ai/ha, preemergence): 50
Plant response rating, Bermudagrass (bermudagrass; [2]): 90
Plant response rating, Bermudagrass (bermudagrass; [3]): 90
Bermudagrass plant response rating (bermudagrass; [4]): 100
Plant response rating (0 = no effect, 100 = complete control), Pigweed (pigweed; 62 g ai/ha, preemergence): 100
Plant response rating, Pigweed (pigweed; [2]): 100
Plant response rating, Pigweed (pigweed; [3]): 100
Pigweed plant response rating (pigweed; [4]): 100
Plant response rating, Barnyardgrass (barnyardgrass; [5]): 20
Barnyardgrass plant response rating (barnyardgrass; [6]): 100
Barnyardgrass plant response rating (barnyardgrass; [7]): 10
Plant response rating, Barnyardgrass (barnyardgrass; [8]): 60
Plant response rating (0 = no effect, 100 = complete control), Morningglory (morningglory; 62 g ai/ha, preemergence): 0
Plant response rating, Morningglory (morningglory; [2]): 40
Plant response rating, Morningglory (morningglory; [3]): 40
Morningglory plant response rating (morningglory; [4]): 40
Plant response rating (0 = no effect, 100 = complete control), Surinam Grass (Surinam grass; 62 g ai/ha, preemergence): 0
Plant response rating, Surinam Grass (Surinam grass; [2]): 5
Plant response rating, Surinam Grass (Surinam grass; [3]): 45
Surinam Grass plant response rating (Surinam grass; [4]): 60
Plant response rating, Cocklebur (cocklebur; [5]): 70
Cocklebur plant response rating (cocklebur; [6]): 10
Cocklebur plant response rating (cocklebur; [7]): 60
Plant response rating, Cocklebur (cocklebur; [8]): 0
